Here are results for 31 compounds from patent US7335632B2, “Beta-secretase inhibitors and methods of use thereof” (CoMentis, Inc., priority 2001, dated 2008).

SMILES strings stand for the structures. Read-outs that look alike come from different tables or passages of the source.

Common to all, as to assay type: biochemical
Experiment [1] has as its target Cathepsin D (Homo sapiens, UniProt P07339). As to the kind of experiment: Inhibition of cathepsin D activity (substrate peptide […], MALDI-TOF). As to conditions: pH 4.1, 37 degrees C., read-out: Cath D Ki.
Experiment [2] has as its target memapsin 2 (Homo sapiens, UniProt P56817). The experiment in a line: Inhibition of memapsin 2 beta-secretase activity toward fluorogenic substrate FS-2. The conditions noted are these: pH 4, 37° C., 20 minutes pre-incubation, substrate FS-2, tight-binding model; read-out: M2 Ki. As to the method: Potency of compounds were determined by measurement of their inhibition of memapsin 2 activity toward a fluorescent substrate. […] Briefly, assays were performed at pH 4, 37° C., by pre-incubation of memapsin 2 enzyme with compound for 20 minutes. Activity measure was initiated by addition of a fluorogenic substrate FS-2 (Bachem Americas, Torrance, Calif.). Fluorescent signal increase over time was measured as a rate of hydrolysis of the peptide substrate.

The target in experiment [3] is T1, memapsin 1 (Homo sapiens, UniProt Q9Y5Z0).
T1 sequence (Q9Y5Z0 63-518): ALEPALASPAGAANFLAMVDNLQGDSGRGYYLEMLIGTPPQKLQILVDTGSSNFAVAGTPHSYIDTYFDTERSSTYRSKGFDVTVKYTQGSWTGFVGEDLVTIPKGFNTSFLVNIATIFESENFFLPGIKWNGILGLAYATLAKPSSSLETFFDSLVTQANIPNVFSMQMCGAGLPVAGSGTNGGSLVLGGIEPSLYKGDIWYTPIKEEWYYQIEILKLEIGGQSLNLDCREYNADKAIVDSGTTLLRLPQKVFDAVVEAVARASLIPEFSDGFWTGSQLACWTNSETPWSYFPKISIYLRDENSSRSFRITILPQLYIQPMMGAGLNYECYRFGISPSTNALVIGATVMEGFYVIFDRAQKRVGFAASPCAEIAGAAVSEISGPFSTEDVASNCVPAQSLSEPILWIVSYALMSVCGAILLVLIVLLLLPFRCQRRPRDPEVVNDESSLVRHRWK
As to the kind of experiment: Inhibition of memapsin 1 beta-secretase activity (substrate peptide […], MALDI-TOF). As to conditions: pH 4.1, 37 degrees C., substrate NH3-ELDLAVEFWHDR-CO2, MALDI-TOF; read-out: M1 Ki.

[4] abbreviates: substrate NH3-[…]-CO2, MALDI-TOF.

Chain of memapsin 2 (P56817 46-501): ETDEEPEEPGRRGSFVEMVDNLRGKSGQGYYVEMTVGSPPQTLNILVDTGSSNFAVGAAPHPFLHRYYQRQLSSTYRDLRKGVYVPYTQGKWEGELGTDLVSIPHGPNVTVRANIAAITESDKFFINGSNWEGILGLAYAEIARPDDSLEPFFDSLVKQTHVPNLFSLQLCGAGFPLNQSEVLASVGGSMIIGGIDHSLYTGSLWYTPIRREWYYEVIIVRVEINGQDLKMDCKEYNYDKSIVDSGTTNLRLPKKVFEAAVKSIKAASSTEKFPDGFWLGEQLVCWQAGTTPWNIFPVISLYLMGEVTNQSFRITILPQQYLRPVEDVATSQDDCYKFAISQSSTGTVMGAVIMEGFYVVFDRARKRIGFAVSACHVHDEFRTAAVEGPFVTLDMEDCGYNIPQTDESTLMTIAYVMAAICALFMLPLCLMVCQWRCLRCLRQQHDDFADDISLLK
Chain of Cathepsin D (P07339 65-412, species assumed): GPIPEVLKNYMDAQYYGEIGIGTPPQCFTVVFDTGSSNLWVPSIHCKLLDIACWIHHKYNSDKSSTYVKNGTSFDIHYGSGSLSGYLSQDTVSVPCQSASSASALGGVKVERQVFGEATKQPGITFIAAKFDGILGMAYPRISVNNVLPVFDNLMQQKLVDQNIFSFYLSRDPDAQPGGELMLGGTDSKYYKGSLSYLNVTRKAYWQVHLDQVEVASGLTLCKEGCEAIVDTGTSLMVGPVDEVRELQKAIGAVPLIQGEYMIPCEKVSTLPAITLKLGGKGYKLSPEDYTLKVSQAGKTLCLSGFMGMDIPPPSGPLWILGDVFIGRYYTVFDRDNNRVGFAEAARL

As usually defined, the Ki is a measure of affinity in units of concentration, obtained from inhibition or displacement. Consider `CSC[C@H](NC(=O)OCc1nccn1C)C(=O)N[C@@H](CC(C)C)[C@@H](O)C[C@@H](C)C(=O)N[C@@H](C(=O)NCC(C)C)C(C)C` [Structure 6], for which the Ki is 100 to 1000 nM in experiment [1] (setting [4]), over 1000 nM in experiment [2] and under 100 nM in experiment [3].
For `C=CCSC[C@H](NC(=O)CCn1nc(C)cc1C)C(=O)N[C@@H](CC(C)C)[C@@H](O)C[C@@H](C)C(=O)N[C@H](C(=O)NCC(C)C)C(C)C` [Structure 10], in that order: under 100 nM, under 100 nM and under 100 nM.
For `CSC[C@H](NC(=O)CC(C)n1nc(C)cc1C)C(=O)N[C@@H](CC(C)C)[C@@H](O)C[C@@H](C)C(=O)N[C@H](C(=O)NCC(C)C)C(C)C` (stereo partly drawn) [Structure 11], in that order: under 100 nM, over 1000 nM and 100 to 1000 nM.
In the same order, the values of `COCSC[C@H](NC(=O)CCn1nc(C)cc1C)C(=O)N[C@H](CC(C)C)[C@@H](O)C[C@@H](C)C(=O)N[C@@H](C(=O)NCC(C)C)C(C)C` [Structure 14] are under 100 nM, under 100 nM and under 100 nM.
For the compound `COCS(=O)(=O)C[C@H](NC(=O)CCn1nc(C)cc1C)C(=O)N[C@H](CC(C)C)[C@@H](O)C[C@@H](C)C(=O)N[C@@H](C(=O)NCC(C)C)C(C)C` [Structure 15], the Ki in experiment [1] (setting [4]), in experiment [2] and in experiment [3] was 100 to 1000 nM in each case.
Regarding `CC(C)CNC(=O)[C@H](NC(=O)[C@H](C)C[C@H](O)[C@@H](CC(C)C)NC(=O)[C@H](CS(C)(=O)=O)NC(=O)OCc1ccn(C)n1)C(C)C` [Structure 20], the Ki in experiment [1] (setting [4]), in experiment [2] and in experiment [3] was 100 to 1000 nM in each case.
For the compound `CSC[C@H](NC(=O)OCc1csc(C)n1)C(=O)N[C@H](CC(C)C)[C@@H](O)C[C@@H](C)C(=O)N[C@@H](C(=O)NCC(C)C)C(C)C` [Structure 21], the results for the Ki in experiment [1] (setting [4]), in experiment [2] and in experiment [3] were under 100 nM, 100 to 1000 nM and 100 to 1000 nM, respectively.
With `COCCOCSC[C@H](NC(=O)OCc1nc(C)cs1)C(=O)N[C@H](CC(C)C)[C@@H](O)C[C@@H](C)C(=O)N[C@@H](C(=O)NCC(C)C)C(C)C` [Structure 23], the Ki in experiment [1] (setting [4]) is under 100 nM; in experiment [2] it was under 100 nM; in experiment [3], 100 to 1000 nM.
As for `CCS(=O)(=O)C[C@H](NC(=O)OCc1nc(C)c[s+]1[O-])C(=O)N[C@H](CC(C)C)[C@@H](O)C[C@@H](C)C(=O)N[C@@H](C(=O)NCC(C)C)C(C)C` (stereo partly drawn) [Structure 24], the results for the Ki in experiment [1] (setting [4]), in experiment [2] and in experiment [3] were under 100 nM, over 1000 nM and 100 to 1000 nM, respectively.
In the same order, the values of `Cc1nc(COC(=O)N[C@@H](CS(C)(=O)=O)C(=O)N[C@H](CC(C)C)[C@@H](O)C[C@@H](C)C(=O)N[C@@H](C(=O)NCC(C)C)C(C)C)cs1` [Structure 25] are 100 to 1000 nM, 100 to 1000 nM and under 100 nM.
For `Cc1nc(COC(=O)N[C@@H](CS(C)(=O)=O)C(=O)N[C@H](CC(C)C)[C@@H](O)C[C@@H](C)C(=O)N[C@@H](C(=O)NCC(C)C)C(C)C)cs1` [Structure 26], in experiment [3], the Ki is 100 to 1000 nM.
As to `CSC[C@H](NC(=O)OCc1coc(C)n1)C(=O)N[C@H](CC(C)C)[C@@H](O)C[C@@H](C)C(=O)N[C@@H](C(=O)NCC(C)C)C(C)C` [Structure 27], the figures for the Ki in experiment [1] (setting [4]), in experiment [2] and in experiment [3] were under 100 nM, 100 to 1000 nM and 100 to 1000 nM, respectively.
In the case of `Cc1nc(COC(=O)N[C@@H](CS(C)(=O)=O)C(=O)N[C@H](CC(C)C)[C@@H](O)C[C@@H](C)C(=O)N[C@@H](C(=O)NCC(C)C)C(C)C)co1` [Structure 28], the Ki in experiment [1] (setting [4]), in experiment [2] and in experiment [3] was 100 to 1000 nM in each case.
Turning to `Cc1csc(COC(=O)N[C@@H](CS(C)(=O)=O)C(=O)N[C@H](CC(C)C)[C@@H](O)C[C@@H](C)C(=O)N[C@@H](C(=O)NCC(C)C)C2CCCCC2)n1` [Structure 33], the results for the Ki in experiment [1] (setting [4]), in experiment [2] and in experiment [3] were over 1000 nM, 100 to 1000 nM and 100 to 1000 nM, respectively.
Consider `CSC[C@H](NC(=O)CCc1nc(C)oc1C)C(=O)N[C@H](CC(C)C)[C@@H](O)C[C@@H](C)C(=O)N[C@@H](C(=O)NCC(C)C)C(C)C` [Structure 41], for which the values for the Ki in experiment [1] (setting [4]), in experiment [2] and in experiment [3] were under 100 nM, under 100 nM and 100 to 1000 nM, respectively.
`Cc1nc(COC(=O)N[C@@H](CS(C)(=O)=O)C(=O)N[C@H](CC(C)C)[C@@H](O)C[C@@H](C)C(=O)NCC(C)C)c(C)o1` [Structure 42]: the inhibitory constant (Ki) in experiment [2] and in experiment [3] was over 1000 nM each time.
Turning to `Cc1nc(CCC(=O)N[C@@H](CS(C)(=O)=O)C(=O)N[C@H](CC(C)C)[C@@H](O)C[C@@H](C)C(=O)N[C@@H](C(=O)NCC(C)C)C(C)C)c(C)o1` [Structure 44], the Ki in experiment [1] (setting [4]) is 100 to 1000 nM; in experiment [2], under 100 nM; in experiment [3], under 100 nM.
In the case of `Cc1csc(COC(=O)N[C@@H](CS(C)(=O)=O)C(=O)N[C@H](CC(C)C)[C@@H](O)C[C@@H](C)C(=O)N[C@@H](C(=O)NCc2ccncc2)C(C)C)n1` [Structure 45], the Ki is 100 to 1000 nM in experiment [1] (setting [4]), 100 to 1000 nM in experiment [2] and over 1000 nM in experiment [3].
For `Cc1nc(COC(=O)N[C@@H](CS(C)(=O)=O)C(=O)N[C@H](Cc2ccccc2)[C@@H](O)C[C@@H](C)C(=O)N[C@@H](C(=O)NCC(C)C)C(C)C)c(C)o1` [Structure 51], the Ki in experiment [1] (setting [4]), in experiment [2] and in experiment [3] was under 100 nM throughout.
As for `CSC[C@H](NC(=O)OCc1nc(C)cs1)C(=O)N[C@H](Cc1ccccc1)[C@@H](O)C[C@@H](C)C(=O)N[C@@H](C(=O)NCC(C)C)C(C)C` [Structure 52], the Ki in experiment [1] (setting [4]) was under 100 nM; in experiment [2], under 100 nM; in experiment [3] it was 100 to 1000 nM.
`CSC[C@H](NC(=O)OCc1noc(C)n1)C(=O)N[C@H](CC(C)C)[C@@H](O)C[C@@H](C)C(=O)N[C@@H](C(=O)NCC(C)C)C(C)C` [Structure 61]: the Ki was under 100 nM in experiment [1] (setting [4]), 100 to 1000 nM in experiment [2] and over 1000 nM in experiment [3].
`Cc1nc(COC(=O)N[C@@H](CS(C)(=O)=O)C(=O)N[C@H](CC(C)C)[C@@H](O)C[C@@H](C)C(=O)N[C@@H](C(=O)NCC(C)C)C(C)C)no1` [Structure 62]: the values for the Ki in experiment [1] (setting [4]), in experiment [2] and in experiment [3] were 100 to 1000 nM, over 1000 nM and over 1000 nM, respectively.
Turning to `Cc1csc(COC(=O)N[C@@H](CS(C)(=O)=O)C(=O)N[C@@H](CC(C)C)[C@@H](O)C[C@@H](C)C(=O)NN(C)S(C)(=O)=O)n1` [Structure 63], the Ki in experiment [1] (setting [4]), in experiment [2] and in experiment [3] was over 1000 nM in each case.
Turning to `CSC[C@H](NC(=O)[C@@H](C)Cc1nc(C)cs1)C(=O)N[C@H](CC(C)C)[C@@H](O)C[C@@H](C)C(=O)N[C@@H](C(=O)NCC(C)C)C(C)C` [Structure 65], the Ki is under 100 nM in experiment [1] (substrate NH3-ELDLAVEFWHDR-CO2, MALDI-TOF); under 100 nM in experiment [2]; under 100 nM in experiment [3].
As for `Cc1noc(COC(=O)N[C@@H](CS(C)(=O)=O)C(=O)N[C@H](CC(C)C)[C@@H](O)C[C@@H](C)C(=O)N[C@@H](C(=O)NCC(C)C)C(C)C)n1` [Structure 69], the Ki in experiment [1] (setting [4]), in experiment [2] and in experiment [3] was 100 to 1000 nM in each case.
As for `CCc1nc(COC(=O)N[C@@H](CSC)C(=O)N[C@H](CC(C)C)[C@@H](O)C[C@@H](C)C(=O)N[C@@H](C(=O)NCC(C)C)C(C)C)c(C)s1` [Structure 70], the Ki in experiment [1] (setting [4]), in experiment [2] and in experiment [3] was under 100 nM in each case.
Regarding `CSC[C@H](NC(=O)OCc1nc(C)cs1)C(=O)N[C@H](CC(C)C)[C@@H](O)C[C@@H](C)C(=O)NCC1CCC(C(=O)OCc2ccccc2)CC1` (stereo partly drawn) [Structure 76], the values for the Ki in experiment [1] (setting [4]), in experiment [2] and in experiment [3] were under 100 nM, over 1000 nM and over 1000 nM, respectively.
For the compound `CSC[C@H](NC(=O)OCc1nc(C)cs1)C(=O)N[C@H](CC(C)C)[C@@H](O)C[C@@H](C)C(=O)N[C@@H](c1ncc[nH]1)C(C)C` [Structure 80], the Ki in experiment [1] (setting [4]) was 100 to 1000 nM; in experiment [2] it was over 1000 nM; in experiment [3], over 1000 nM.
As to `CSC[C@H](NC(=O)OCc1nc(C)cs1)C(=O)N[C@H](CC(C)C)[C@@H](O)C[C@@H](C)C(=O)N[C@H](CN(C)C)C(=O)NC(C)C` [Structure 81], the Ki in experiment [1] (setting [4]), in experiment [2] and in experiment [3] was over 1000 nM in each case.
As for `Cc1csc(COC(=O)N[C@@H](CS(C)(=O)=O)C(=O)N[C@H](CC(C)C)[C@@H](O)C[C@@H](C)C(=O)NCC2CCC(C(=O)OCc3ccccc3)CC2)n1` (stereo partly drawn) [Structure 82], the Ki in experiment [1] (setting [4]) was under 100 nM; in experiment [2], over 1000 nM; in experiment [3], over 1000 nM.
On to `Cc1csc(COC(=O)N[C@@H](CS(C)(=O)=O)C(=O)N[C@@H](CC(C)C)[C@@H](O)C[C@@H](C)C(=O)N[C@H]2CCNC2=O)n1` [Structure 83], for which the Ki in experiment [1] (setting [4]), in experiment [2] and in experiment [3] was over 1000 nM throughout.
